Data published in patent US7709516B2, “Helix 12 directed non-steroidal antiandrogens” (Endorecherche, Inc., priority 2005, dated 2010).
Read-outs that look alike come from different tables or passages of the source.

What was measured:
[1] = tested on: Shionogi mouse mammary carcinoma cells; assay: Androgenic/antiandrogenic activity: inhibition of DHT-stimulated Shionogi cell number; format: cell-based; conditions: Mus musculus, DHT-stimulated Shionogi cell number
Human Androgen Receptor = target: T1, Human Androgen Receptor (Homo sapiens, UniProt P10275); assay: Androgen receptor binding assay ([3H]R1881, HAP) in cytosol of HEK-293 cells transfected with hAR; conditions: relative to R1881 = 100, transfected cells
T1 sequence (P10275 1-920): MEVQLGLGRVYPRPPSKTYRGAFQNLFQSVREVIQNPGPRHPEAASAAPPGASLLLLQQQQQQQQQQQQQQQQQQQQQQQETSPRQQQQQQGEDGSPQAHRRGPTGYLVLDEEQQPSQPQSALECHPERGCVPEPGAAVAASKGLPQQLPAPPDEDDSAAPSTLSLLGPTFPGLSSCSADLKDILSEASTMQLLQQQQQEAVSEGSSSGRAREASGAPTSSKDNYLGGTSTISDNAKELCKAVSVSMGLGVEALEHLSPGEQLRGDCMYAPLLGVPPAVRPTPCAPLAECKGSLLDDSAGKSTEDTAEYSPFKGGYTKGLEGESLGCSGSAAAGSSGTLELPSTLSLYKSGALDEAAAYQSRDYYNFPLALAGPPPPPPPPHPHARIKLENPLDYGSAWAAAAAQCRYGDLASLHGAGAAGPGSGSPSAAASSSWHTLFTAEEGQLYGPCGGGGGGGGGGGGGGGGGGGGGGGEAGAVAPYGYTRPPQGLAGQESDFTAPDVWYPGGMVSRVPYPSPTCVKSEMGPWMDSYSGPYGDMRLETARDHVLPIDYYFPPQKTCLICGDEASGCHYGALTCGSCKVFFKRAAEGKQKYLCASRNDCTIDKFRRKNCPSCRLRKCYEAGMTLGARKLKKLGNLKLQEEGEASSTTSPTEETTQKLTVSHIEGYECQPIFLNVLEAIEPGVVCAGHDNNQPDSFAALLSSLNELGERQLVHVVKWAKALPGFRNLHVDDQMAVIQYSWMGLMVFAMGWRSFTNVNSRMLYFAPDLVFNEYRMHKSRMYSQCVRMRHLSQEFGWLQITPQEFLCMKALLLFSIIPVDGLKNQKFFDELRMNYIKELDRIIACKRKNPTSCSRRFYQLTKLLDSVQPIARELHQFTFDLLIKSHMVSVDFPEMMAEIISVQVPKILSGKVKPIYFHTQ

[2] = tested on: rat prostate, seminal vesicle, levator ani muscle; assay: Systemic antiandrogenic activity in orchidectomized immature male rats with DHT implant; format: in vivo; conditions: Rattus norvegicus, 168 h
[3] = read-out: Shionogi Antiandrogenic Activity IC50, Table 2
[4] = read-out: Lev Ani % inhibition, Table 2, rat +DHT, s.c. or p.o. (route not marked), levator ani, 0.5 mg/animal daily 7 days
[5] = read-out: Prostate % inhibition, Table 2, rat +DHT, s.c. or p.o. (route not marked), 0.5 mg/animal daily 7 days
[6] = read-out: SV % inhibition, Table 2, rat +DHT, s.c. or p.o. (route not marked), seminal vesicle, 0.5 mg/animal daily 7 days
[7] = read-out: Shionogi Antiandrogenic Activity IC50, Table 1
[8] = read-out: Lev Ani % inhibition, Table 1, rat +DHT, s.c. or p.o. (route not marked), levator ani, 0.5 mg/animal daily 7 days
[9] = read-out: Prostate % inhibition, Table 1, rat +DHT, s.c. or p.o. (route not marked in cell), 0.5 mg/animal daily 7 days
[10] = read-out: SV % inhibition, Table 1, rat +DHT, s.c. or p.o. (route not marked), seminal vesicle, 0.5 mg/animal daily 7 days

Row | SMILES | Human Androgen Receptor Binding (%) RBA R1881 = 100 (Human Androgen Receptor; Table 2) [%] | IC50 [1, 3] [nM] | inhibition in vivo at 0.5 mg [2, 4] [%] | inhibition in vivo at 0.5 mg [2, 5] [%] | inhibition in vivo at 0.5 mg [2, 6] [%] | IC50 [1, 7] [nM] | Human Androgen Receptor Binding (%) RBA R1881 = 100 (Human Androgen Receptor; Table 1) [%] | inhibition in vivo at 0.5 mg [2, 8] [%] | inhibition in vivo at 0.5 mg [2, 9] [%] | inhibition in vivo at 0.5 mg [2, 10] [%] | further results
1 | CCC(c1ccc(OCCC2(O)CCN(c3ccc(C#N)c4ccccc34)CC2)cc1)N1CCCC1 (stereo not drawn) [EM-7738] | 10.5 |  |  |  |  |  |  |  |  |  | IC50 ([1]; Table 2, read-out: Shionogi Antiandrogenic Activity IC50): 18.3 nM; inhibition in vivo at 0.5 mg ([2]; read-out: Lev Ani % inhibition): 10%; inhibition in vivo at 0.5 mg ([2]; read-out: Prostate % inhibition): 0%; inhibition in vivo at 0.5 mg ([2]; read-out: SV % inhibition): 16%
2 | CCC(CC)NC(CC)c1ccc(OCCC2(O)CCN(c3ccc(C#N)c(C(F)(F)F)c3)CC2)c(C)c1 (stereo not drawn) [EM-8006] | 8.1 | 30.8 | 40 | 14 | 32 |  |  |  |  |  | 
3 | CCC(=O)c1ccc(OCCCN2C(=S)N(c3ccc(C#N)c(C(F)(F)F)c3)C(=O)C2(C)C)cc1 [EM-7154] |  |  |  |  |  | 20 | 64.7 | 6 | 8 | 31 | 
4 | Cc1cc(=O)oc2ccc(OCCC3(O)CCN(c4ccc(C#N)c(C(F)(F)F)c4)CC3)cc12 [EM-8285] | <1.0 | 18.3 | 0 | 0 | 0 |  |  |  |  |  | 
5 | CC1(C)C(=O)N(c2ccc(C#N)c(C(F)(F)F)c2)C(=S)N1CCCOc1ccc2oc(=O)ccc2c1 [EM-8158] |  |  |  |  |  | 3.5 | 88.8 |  |  |  | inhibition in vivo at 0.5 mg ([2]; Prostate cell, po, read-out: Lev Ani % inhibition, Table 1, rat +DHT, p.o, levator ani, 0.5 mg/animal daily 7 days): 32%; inhibition in vivo at 0.5 mg ([2]; Prostate cell, po, read-out: SV % inhibition, Table 1, rat +DHT, p.o, seminal vesicle, 0.5 mg/animal daily 7 days): 70%; inhibition in vivo at 0.5 mg ([2]; po, read-out: Prostate % inhibition, Table 1, rat +DHT, p.o, 0.5 mg/animal daily 7 days): 38%
6 | CCC(CC)NC(CC)c1ccc(COCCN2CCN(c3ccc(C#N)c(C(F)(F)F)c3)CC2)cc1 (stereo not drawn) [EM-7792] | <1.0 | 82.9 | 7 | 21 | 0 |  |  |  |  |  | 
7 | Cc1cc(CN2CCCC2)ccc1OCCCN1C(=S)N(c2ccc(C#N)c3ccccc23)C(=O)C1(C)C [EM-7775] |  |  |  |  |  | 60.5 | 13.2 | 10 | 0 | 25 | 
8 | CC(C)NC(C)c1ccc(OCCCN2C(=S)N(c3ccc(C#N)c(C(F)(F)F)c3)C(=O)C2(C)C)cc1 (stereo not drawn) [EM-7234, 4-(3-{3-[4-(1-Isopropylamino-ethyl)-phenoxy]-propyl}-4,4-dimethyl-5-oxo-2-thioxo-imidazolidin-1-yl)-2-tifluoromethyl-benzonitile] |  |  |  |  |  | 6.2 | 30.4 | 75 | 50 | 82 | 
9 | CC(C)NCc1ccc(OCCCN2C(=S)N(c3ccc(C#N)c(C(F)(F)F)c3)C(=O)C2(C)C)cc1 [EM-7105] |  |  |  |  |  | 11.8 | 11.7 | 45 | 60 | 81 | 
